Assay: Plasma glucose level after subcutaneous injection of insulin in rabbits
Assay type: in vivo, Japanese Wister rabbit
Conditions: rabbit, 0.5 ml of 1 unit/ml
Protocol: For each insulin sample, an aliquot was taken from the fractions so that the insulin contents for both kinds of insulin calculated based on the main peak areas became same, and then dried.
The resulting solution (0.5 ml) was subcutaneously injected to the back of a Japanese Wister rabbit (Kbs:JW, […]). After the injection, blood was collected from the anterior auricular vein of the rabbit over a period of time. Each blood sample (0.45 ml) was added with a mix of glycolysis-inhibiting agents (NaF: 12.5 mg/ml, heparin-Na: 125 units/ml, EDTA-2Na: 48 mg/ml) ([…]]) and fully mixed. The mixed solution was centrifuged at 3,000 rpm for 15 min. at 5° C., and the supernatant was used as a plasma sample. For each plasma sample, the plasma glucose level was determined using a biochemical automated analyzer (CIBA-CORNING; Express PLUS), and the plasma insulin level was determined using EIA kit (Wako Pure Chemical Industries, Ltd.).

Substance: Novolin: a commercially available insulin, Novolin 40, (Novo Nordisk Pharma); insulin fractions re-purified by HPLC before testing
- time course of the plasma glucose level after the injection of insulin (subcutaneous injection to the back, FIG. 9): showed the decrease in plasma glucose level
- plasma glucose level compared with ITOHAM insulin (subcutaneous, relative to ITOHAM insulin): slight lower plasma glucose level

Reference: US6841361B1, “Methods of producing recombinant insulin from novel fused proteins” (Itoham Foods Inc., priority 1999, dated 2005)
